Experimental data reported in PubChem BioAssay AID190 (DTP/NCI, 2004).
Where “and” joins values, the source holds several entries; their conditions need not be identical. Equal values may be shown once. Inconclusive results and toxic doses are left out. How the source made its calls: active means survival T/C of 150% or more; inactive means T/C below 125% in these data.

Tested on: AKR/Lw mice, AKR lymphoma ip, median survival T/C
Assay: NCI In Vivo Anticancer Drug Screen. Data for tumor model Lymphoma AKR (Transplanted) (intraperitoneal) in AKR/Lw mice
Details: endpoint: median survival time, higher = longer survival
Protocol: The antitumor activity of compounds was measured in mice bearing transplantable tumors. Survival or tumor size were measured and the results are expressed as the measurement made in the treated group (T) divided by the measurement made in the vehicle treated control group (C). The tumor model used in this assay is Lymphoma AKR (Transplanted) (intraperitoneal) in AKR/Lw mice

[1] = dose: 12.5 mg/kg/injection, schedule: Q01DX009 (ip), vehicle: Klucel (hydroxypropylcellulose) (HPC)
[2] = dose: 25.0 mg/kg/injection, schedule: Q01DX009 (ip), vehicle: Klucel (hydroxypropylcellulose) (HPC)
[3] = dose: 50.0 mg/kg/injection, schedule: Q01DX009 (ip), vehicle: Klucel (hydroxypropylcellulose) (HPC)
[4] = dose: 100.0 mg/kg/injection, schedule: Q01DX001 (ip), vehicle: saline
[5] = dose: 100.0 mg/kg/injection, schedule: Q04DX003 (ip), vehicle: Klucel (hydroxypropylcellulose) (HPC)
[6] = dose: 200.0 mg/kg/injection, schedule: Q01DX001 (ip), vehicle: saline
[7] = dose: 200.0 mg/kg/injection, schedule: Q04DX003 (ip), vehicle: Klucel (hydroxypropylcellulose) (HPC)
[8] = dose: 400.0 mg/kg/injection, schedule: Q04DX003 (ip), vehicle: Klucel (hydroxypropylcellulose) (HPC)
[9] = dose: 100.0 mg/kg/injection, schedule: Q01DX001 (ip), vehicle: Klucel (hydroxypropylcellulose) (HPC)
[10] = dose: 200.0 mg/kg/injection, schedule: Q01DX001 (ip), vehicle: Klucel (hydroxypropylcellulose) (HPC)
[11] = dose: 400.0 mg/kg/injection, schedule: Q01DX001 (ip), vehicle: Klucel (hydroxypropylcellulose) (HPC)
[12] = dose: 400.0 mg/kg/injection, schedule: Q01DX001 (ip), vehicle: saline

Measured: T/C

CS(=O)(=O)OCCCCOS(C)(=O)=O
inactive: dose: 0.5 mg/kg/injection, schedule: Q01DX009 (ip), vehicle: Klucel (hydroxypropylcellulose) (HPC) 100 % of control | dose: 0.75 mg/kg/injection, schedule: Q01DX009 (ip), vehicle: saline 112 % of control | dose: 1.0 mg/kg/injection, schedule: Q01DX009 (ip), vehicle: Klucel (hydroxypropylcellulose) (HPC) 120 % of control | dose: 1.5 mg/kg/injection, schedule: Q01DX009 (ip), vehicle: saline 116 % of control | dose: 2.0 mg/kg/injection, schedule: Q01DX009 (ip), vehicle: Klucel (hydroxypropylcellulose) (HPC) 120 % of control | dose: 2.5 mg/kg/injection, schedule: Q01DX009 (ip), vehicle: saline 112 % of control | dose: 3.0 mg/kg/injection, schedule: Q01DX009 (ip), vehicle: saline 108 % of control | dose: 3.75 mg/kg/injection, schedule: Q01DX009 (ip), vehicle: saline 100 % of control and 116 % of control | dose: 4.0 mg/kg/injection, schedule: Q01DX009 (ip), vehicle: Klucel (hydroxypropylcellulose) (HPC) 107 % of control | dose: 5.0 mg/kg/injection, schedule: Q01DX009 (ip), vehicle: Klucel (hydroxypropylcellulose) (HPC) 102 % of control | dose: 5.0 mg/kg/injection, schedule: Q01DX009 (ip), vehicle: saline 96 % of control | dose: 7.5 mg/kg/injection, schedule: Q01DX009 (ip), vehicle: saline 86 % of control and 89 % of control | dose: 8.0 mg/kg/injection, schedule: Q01DX009 (ip), vehicle: Klucel (hydroxypropylcellulose) (HPC) 100 % of control | dose: 8.0 mg/kg/injection, schedule: Q01DX009 (ip), vehicle: saline 115 % of control | dose: 10.0 mg/kg/injection, schedule: Q01DX009 (ip), vehicle: saline 104 % of control | dose: 10.0 mg/kg/injection, schedule: Q04DX003 (ip), vehicle: Klucel (hydroxypropylcellulose) (HPC) 104 % of control | dose: 12.5 mg/kg/injection, schedule: Q01DX001 (ip), vehicle: saline 102 % of control and 110 % of control (2×) | [1] 89 % of control | dose: 12.5 mg/kg/injection, schedule: Q01DX009 (ip), vehicle: saline 87 % of control | dose: 15.0 mg/kg/injection, schedule: Q01DX009 (ip), vehicle: saline 105 % of control | dose: 16.0 mg/kg/injection, schedule: Q01DX009 (ip), vehicle: saline 103 % of control | dose: 20.0 mg/kg/injection, schedule: Q01DX009 (ip), vehicle: saline 113 % of control | dose: 20.0 mg/kg/injection, schedule: Q04DX003 (ip), vehicle: Klucel (hydroxypropylcellulose) (HPC) 91 % of control | dose: 25.0 mg/kg/injection, schedule: Q01DX001 (ip), vehicle: saline 97 % of control and 100 % of control and 114 % of control | [2] 89 % of control | dose: 25.0 mg/kg/injection, schedule: Q01DX009 (ip), vehicle: saline 89 % of control | dose: 25.0 mg/kg/injection, schedule: Q04DX003 (ip), vehicle: other 108 % of control | dose: 25.0 mg/kg/injection, schedule: Q04DX003 (ip), vehicle: saline 101 % of control | dose: 30.0 mg/kg/injection, schedule: Q01DX009 (ip), vehicle: saline 104 % of control | dose: 37.5 mg/kg/injection, schedule: Q04DX003 (ip), vehicle: saline 90 % of control | dose: 40.0 mg/kg/injection, schedule: Q04DX003 (ip), vehicle: Klucel (hydroxypropylcellulose) (HPC) 100 % of control | [3] 89 % of control | dose: 50.0 mg/kg/injection, schedule: Q04DX003 (ip), vehicle: other 104 % of control | dose: 50.0 mg/kg/injection, schedule: Q04DX003 (ip), vehicle: saline 109 % of control | [4] 97 % of control and 105 % of control | [5] 100 % of control | dose: 100.0 mg/kg/injection, schedule: Q04DX003 (ip), vehicle: other 91 % of control | dose: 100.0 mg/kg/injection, schedule: Q04DX003 (ip), vehicle: saline 92 % of control | [6] 97 % of control | [7] 105 % of control | [8] 100 % of control | dose: 600.0 mg/kg/injection, schedule: Q01DX001 (ip), vehicle: Klucel (hydroxypropylcellulose) (HPC) 106 % of control

ClCCCNCc1ccccc1
inactive: [4] 94 % of control

COC(=O)CC(=O)c1ccc(C)cc1
inactive: [9] 100 % of control | [10] 103 % of control | [11] 120 % of control

O=CN(c1ccccc1)c1ccccc1
inactive: dose: 25.0 mg/kg/injection, schedule: Q01DX001 (ip), vehicle: Klucel (hydroxypropylcellulose) (HPC) 111 % of control | dose: 50.0 mg/kg/injection, schedule: Q01DX001 (ip), vehicle: Klucel (hydroxypropylcellulose) (HPC) 105 % of control | [9] 97 % of control | dose: 100.0 mg/kg/injection, schedule: Q01DX001 (ip), vehicle: other 120 % of control | dose: 200.0 mg/kg/injection, schedule: Q01DX001 (ip), vehicle: other 118 % of control | dose: 400.0 mg/kg/injection, schedule: Q01DX001 (ip), vehicle: other 100 % of control

COc1ccccc1Oc1ccc(N=Cc2ccc(C)cc2)cc1
inactive: [9] 93 % of control | [5] 93 % of control | [10] 100 % of control | [7] 97 % of control | [11] 93 % of control | [8] 102 % of control

c1ccc(CC(Cc2ccccc2)CN2CCCC2)cc1
inactive: [4] 94 % of control | [6] 88 % of control | [12] 123 % of control

O=C(O)c1ccc(SSc2ccc(C(=O)O)cn2)nc1
inactive: [1] 100 % of control | [2] 92 % of control | [3] 102 % of control | [9] 95 % of control and 102 % of control | [10] 90 % of control and 92 % of control | [11] 95 % of control and 97 % of control

O=c1[nH]cc(-c2ccccc2)c(=O)[nH]1
inactive: [4] 94 % of control | [6] 88 % of control | [12] 97 % of control

CCCCCCCCCCCCCCCC(=O)N(CCC#N)CCCCCCCCCN(CCC#N)C(=O)CCCCCCCCCCCCCCC
inactive: [4] 116 % of control | [6] 94 % of control
